According to the supplement of paper PMC10307832:

The cell lines below were run with Cc1ccc(NC(=O)c2ccc(CN3CCN(C)CC3)cc2)cc1Nc1nc(-c2cccnc2)cs1 [Masitinib] + COc1cc2c(Oc3ccc(NC(=O)C4(C(=O)Nc5ccc(F)cc5)CC4)cc3F)ccnc2cc1OCCCN1CCOCC1 [Foretinib] (partner 0.25 µM) (assay: relative viability (nuclei count vs DMSO), 5 days (fraction); higher = more cells survive). Conditions: first compound 0.01 µM.
In short: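 The day after seeding in 1536-well plates, lung cancer cell lines were treated by pin tool with a single drug, or with a fixed anchor-drug dose together with five library-drug doses (not always all listed) in √10 steps. After 5 days, a combined fix-and-stain solution (final 0.05% Triton X-100, 1% formaldehyde, 1 ug/ml Hoechst) was added. Nuclei counted on 4× images gave relative viability as treated counts over vehicle counts, reported as the median of duplicate plates.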

| Cell Line | relative viability |
| --- | --- |
| A549 | 0.881 |
| SW 900 | 0.757 |
| NCI-H727 | 0.673 |
| NCI-H1299 | 1.04 |
| NCI-H650 | 0.978 |
| NCI-H1563 | 0.989 |
| ABC-1 | 0.93 |
| NCI-H661 | 0.945 |

Same assay, conditions: first compound 0.03162 µM

| Cell Line | relative viability |
| --- | --- |
| NCI-H1623 | 0.739 |
| NCI-H838 | 0.837 |
| NCI-H1651 | 0.755 |
| EBC-1 | 0.096 |
| NCI-H1734 | 0.914 |
| NCI-H2009 | 1.17 |
| LU99A | 0.823 |
| PC-14 | 0.831 |
| LCLC-103H | 0.684 |
| NCI-H596 | 0.9 |
| NCI-H2228 | 0.763 |
| EMC-BAC-2 | 0.955 |
| NCI-H2087 | 0.907 |
| Calu-6 | 0.822 |
| HCC-366 | 0.933 |
| NCI-H1703 | 0.308 |

| Cell Line | relative viability |
| --- | --- |
| NCI-H647 | 1.19 |
| LK-2 | 1.3 |
| NCI-H2126 | 0.97 |
| NCI-H2342 | 0.875 |
| NCI-H1793 | 0.684 |
| IA-LM | 1.09 |
| NCI-H358 | 0.81 |
| A549 | 0.826 |
| SW 900 | 0.846 |
| NCI-H727 | 1.02 |
| NCI-H1299 | 1.06 |
| NCI-H650 | 0.966 |
| NCI-H1563 | 0.932 |
| ABC-1 | 1.07 |
| NCI-H661 | 1.05 |

Same assay, conditions: first compound 0.1 µM

| Cell Line | relative viability |
| --- | --- |
| NCI-H1623 | 0.771 |
| NCI-H838 | 1.18 |
| NCI-H1651 | 0.862 |
| EBC-1 | 0.108 |
| NCI-H1734 | 0.898 |
| NCI-H2009 | 1.18 |
| LU99A | 0.877 |
| PC-14 | 0.857 |
| LCLC-103H | 0.773 |
| NCI-H596 | 0.947 |
| NCI-H2228 | 0.838 |
| EMC-BAC-2 | 1.02 |
| NCI-H2087 | 1.18 |
| Calu-6 | 0.931 |
| NCI-H1703 | 0.287 |
| NCI-H647 | 1.46 |
| LK-2 | 1.4 |
| NCI-H2126 | 1.08 |
| NCI-H2342 | 1.08 |
| NCI-H1793 | 0.973 |
| IA-LM | 1.13 |
| NCI-H358 | 0.784 |
| A549 | 1 |
| SW 900 | 1.04 |
| NCI-H727 | 1 |
| NCI-H1299 | 1.09 |
| NCI-H650 | 1.14 |
| NCI-H1563 | 0.87 |
| ABC-1 | 1.21 |
| NCI-H661 | 1.04 |

Same assay, conditions: first compound 0.3162 µM

| Cell Line | relative viability |
| --- | --- |
| NCI-H1623 | 0.707 |
| NCI-H838 | 0.813 |
| NCI-H1651 | 0.789 |
| EBC-1 | 0.0908 |
| NCI-H1734 | 1.05 |
| NCI-H2009 | 1.18 |
| LU99A | 1.01 |
| PC-14 | 0.957 |
| LCLC-103H | 0.703 |
| NCI-H596 | 0.869 |
| NCI-H2228 | 0.861 |
| EMC-BAC-2 | 0.956 |
| NCI-H2087 | 1.11 |
| Calu-6 | 0.825 |
| HCC-366 | 0.961 |
| NCI-H1703 | 0.342 |

| Cell Line | relative viability |
| --- | --- |
| NCI-H647 | 1.04 |
| LK-2 | 1.13 |
| NCI-H2126 | 1.35 |
| NCI-H2342 | 1.13 |
| NCI-H1793 | 0.519 |
| IA-LM | 1.12 |
| NCI-H358 | 0.625 |
| A549 | 0.898 |
| SW 900 | 0.798 |
| NCI-H727 | 0.891 |
| NCI-H1299 | 1.09 |
| NCI-H650 | 0.977 |
| NCI-H1563 | 0.877 |
| ABC-1 | 1.05 |
| NCI-H661 | 0.95 |

Same assay, conditions: first compound 1 µM

| Cell Line | relative viability |
| --- | --- |
| NCI-H1623 | 0.735 |
| NCI-H838 | 1.05 |
| NCI-H1651 | 0.94 |
| EBC-1 | 0.126 |
| NCI-H1734 | 0.811 |
| NCI-H2009 | 1.19 |
| LU99A | 0.822 |
| PC-14 | 0.949 |
| LCLC-103H | 0.735 |
| NCI-H596 | 0.891 |
| NCI-H2228 | 0.777 |
| EMC-BAC-2 | 1.02 |
| NCI-H2087 | 1.17 |
| Calu-6 | 0.862 |
| HCC-366 | 0.998 |
| NCI-H1703 | 0.328 |
| NCI-H647 | 1.19 |
| LK-2 | 1.22 |
| NCI-H2126 | 1.02 |
| NCI-H2342 | 1.01 |
| NCI-H1793 | 0.61 |
| IA-LM | 1.36 |
| NCI-H358 | 0.591 |
| A549 | 1.23 |
| SW 900 | 1.03 |
| NCI-H727 | 0.85 |
| NCI-H1299 | 1.07 |
| NCI-H650 | 1.01 |
| NCI-H1563 | 0.895 |
